Results published in PubChem BioAssay (NCI).
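In this assay, cells in 96-well plates receive the compound at five concentrations for 48 hours. Endpoints are linearly interpolated between the surrounding concentrations. TGI denotes the concentration required for complete inhibition of growth.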

Assays:
Assay in all cases: DTP human tumour cell line panel, 48 h
NCI-H23 lung = tested on: NCI-H23 lung
XF 498 CNS = tested on: XF 498 CNS
A549 NSCLC = tested on: A549 NSCLC
CCRF-CEM leukemia = tested on: CCRF-CEM leukemia
LXFL 529 NSCLC = tested on: LXFL 529 NSCLC
786-0 renal = tested on: 786-0 renal
OVCAR-4 ovarian = tested on: OVCAR-4 ovarian
EKVX NSCLC = tested on: EKVX NSCLC
MALME-3M melanoma = tested on: MALME-3M melanoma
HOP-18 NSCLC = tested on: HOP-18 NSCLC
OVCAR-8 ovarian = tested on: OVCAR-8 ovarian
DLD-1 colon = tested on: DLD-1 colon
M19-MEL melanoma = tested on: M19-MEL melanoma
NCI-H522 lung = tested on: NCI-H522 lung
SK-MEL-2 melanoma = tested on: SK-MEL-2 melanoma
SNB-19 CNS = tested on: SNB-19 CNS
HCT-15 colon = tested on: HCT-15 colon
SK-OV-3 ovarian = tested on: SK-OV-3 ovarian
SK-MEL-28 melanoma = tested on: SK-MEL-28 melanoma
OVCAR-5 ovarian = tested on: OVCAR-5 ovarian
UO-31 renal = tested on: UO-31 renal
NCI-H460 lung = tested on: NCI-H460 lung
ACHN renal = tested on: ACHN renal
NCI-H226 lung = tested on: NCI-H226 lung
A498 renal = tested on: A498 renal
SF-539 CNS = tested on: SF-539 CNS
M14 melanoma = tested on: M14 melanoma
RXF 393 renal = tested on: RXF 393 renal
UACC-62 melanoma = tested on: UACC-62 melanoma
UACC-257 melanoma = tested on: UACC-257 melanoma
U251 CNS = tested on: U251 CNS
SNB-75 CNS = tested on: SNB-75 CNS
SF-295 CNS = tested on: SF-295 CNS
SW-620 colon = tested on: SW-620 colon
KM12 colon = tested on: KM12 colon
IGROV1 ovarian = tested on: IGROV1 ovarian
SN12C renal = tested on: SN12C renal
OVCAR-3 ovarian = tested on: OVCAR-3 ovarian
HT29 colon = tested on: HT29 colon
HCT-116 colon = tested on: HCT-116 colon
COLO 205 colon = tested on: COLO 205 colon
SK-MEL-5 melanoma = tested on: SK-MEL-5 melanoma
HOP-62 NSCLC = tested on: HOP-62 NSCLC
HCC-2998 colon = tested on: HCC-2998 colon
SNB-78 CNS = tested on: SNB-78 CNS
MOLT-4 leukemia = tested on: MOLT-4 leukemia
HOP-92 NSCLC = tested on: HOP-92 NSCLC
CAKI-1 renal = tested on: CAKI-1 renal
K-562 leukemia = tested on: K-562 leukemia
LOX IMVI melanoma = tested on: LOX IMVI melanoma
KM20L2 colon = tested on: KM20L2 colon
DMS 273 small cell lung = tested on: DMS 273 small cell lung
TK-10 renal = tested on: TK-10 renal
SF-268 CNS = tested on: SF-268 CNS
SR leukemia = tested on: SR leukemia
RPMI-8226 leukemia = tested on: RPMI-8226 leukemia
HL-60(TB) leukemia = tested on: HL-60(TB) leukemia
DMS 114 small cell lung = tested on: DMS 114 small cell lung
RXF-631 renal = tested on: RXF-631 renal

Measured: TGI

CCOC(=O)c1cc(=O)n(C)c(=O)n1C
not listed: SR leukemia | RPMI-8226 leukemia | HL-60(TB) leukemia | DMS 114 small cell lung | RXF-631 renal
> 100 µM: all other assays above

C=CCCCCCCCCCP(=O)(c1ccccc1)c1ccc2c(c1)OCCOCCOCCOCCO2 (centres undefined)
31.2 µM: OVCAR-5 ovarian | HCC-2998 colon
31 µM: COLO 205 colon
32.7 µM: XF 498 CNS
25.1 µM: HCT-116 colon
24.6 µM: K-562 leukemia
28.5 µM: SF-295 CNS
29.3 µM: U251 CNS
25.7 µM: SNB-19 CNS
29 µM: LOX IMVI melanoma
34.2 µM: EKVX NSCLC
29.9 µM: SW-620 colon
19.7 µM: OVCAR-3 ovarian | HL-60(TB) leukemia
25.4 µM: KM12 colon
30.1 µM: SK-MEL-28 melanoma
30.6 µM: UACC-257 melanoma
32.4 µM: SN12C renal | TK-10 renal
29.7 µM: NCI-H23 lung
26.4 µM: NCI-H460 lung
29.8 µM: 786-0 renal
31.4 µM: ACHN renal
34.5 µM: SNB-78 CNS
24.9 µM: MOLT-4 leukemia
28.2 µM: HCT-15 colon
40 µM: CCRF-CEM leukemia
30.5 µM: HOP-62 NSCLC
33 µM: M19-MEL melanoma
> 100 µM: M14 melanoma | HOP-92 NSCLC | CAKI-1 renal
24.8 µM: OVCAR-4 ovarian | HT29 colon
28.1 µM: A549 NSCLC
34.8 µM: SK-OV-3 ovarian
31.8 µM: HOP-18 NSCLC | RPMI-8226 leukemia
29.4 µM: UACC-62 melanoma
30.2 µM: IGROV1 ovarian
27.3 µM: DLD-1 colon
30.3 µM: OVCAR-8 ovarian
33.9 µM: NCI-H226 lung
24.2 µM: SK-MEL-5 melanoma
31.9 µM: MALME-3M melanoma | SK-MEL-2 melanoma | SF-539 CNS
27.7 µM: A498 renal
22.8 µM: SR leukemia
29.5 µM: SF-268 CNS
33.1 µM: SNB-75 CNS
22.7 µM: UO-31 renal
27.4 µM: RXF 393 renal
29.1 µM: DMS 273 small cell lung
27.1 µM: KM20L2 colon
24.5 µM: NCI-H522 lung

CC1(C)C(=O)OC(n2cc(F)c(=O)[nH]c2=O)C1=O (centres undefined)
98.6 µM: HOP-92 NSCLC
not listed: IGROV1 ovarian | SK-MEL-5 melanoma | CAKI-1 renal | DMS 273 small cell lung | SR leukemia | RXF-631 renal
> 100 µM: all other assays above

CN(C)NC(=O)/C(=C/c1ccc(Cl)cc1)NC(=O)c1ccccc1
not listed: SW-620 colon | SNB-78 CNS | DMS 114 small cell lung
> 100 µM: all other assays above
